Reference: a melting point compilation (Tetko et al.; mined from patent text by program, amines drawn as free bases though some values may be those of a salt)

| Compound | melting point |
| --- | --- |
| CCCCc1cc2ccccc2c(Oc2ccc(/C=C/C(=O)O)cc2)c1-c1ccc(O)cc1 | 107 to 109 °C |
| O=[N+]([O-])c1cccc(CN2CCC(c3cc(-c4ccc(Cl)cc4)[nH]n3)CC2)c1 | 174 to 176 °C |
| COC(=O)[C@]12CN(Cc3ccccc3)C[C@@H]1C(=O)CC[C@@]2(C)c1ccccc1 (racemic) | 115 °C |
| O=C(C=Cc1ccccc1Sc1ccc(Cl)cc1)N1CCCC1=O | 144 to 147 °C |
| S=C1CNCCN1Cc1ccccc1 | 70 to 73 °C |
| O=C(NCCCCCCOC(=O)N1CCC2(CCCC2)CC1)OC1CCN(C(=O)Oc2ccc(-c3ccccc3)cc2)CC1 | 110 to 111 °C |
| CCn1c2cc(C=O)ccc2c2c3ccccc3ccc21 | 148 to 149 °C |
| CCCc1cc(-c2[nH]c3ccccc3c2C)cc(CCC)c1O | 102 °C |
| Nc1c(-c2ccc(I)cc2)nc2ccc(Cl)cc2c1C(=O)O | 243 to 245 °C |
| CC1(C)c2ccccc2C(C)(C)C1(CC#N)SN=O | 67 to 69 °C |
| Nc1ccc(C(c2ccc(F)cc2)n2ccnc2)cc1[N+](=O)[O-] (configuration not stated) | 147 °C |
| O=[N+]([O-])c1cc(-c2ccncc2)ccc1Cl | 110 to 111 °C |
| Oc1ccc2c3c1OC1C(O)CCC4(F)C(C2)N(CC2CCC2)CCC314 (configuration not stated) | 236 to 239 °C |
| O=C1Nc2cccnc2N(C(=O)NCCN2CCCCC2CN2CCCC2)c2ccccc21 (configuration not stated) | 198 °C |
| CNc1nc(C(C)c2ccc(-c3ccccc3)c(F)c2)c(C(=O)NO)s1 (configuration not stated) | 118 °C |
| CCc1cc(C(=O)c2ccccc2Cl)c(-n2c(C)nnc2CNC(=O)c2cc3ccccc3n2CCC(=O)OC)s1 | 67 to 68 °C |
| CCc1nc(Cl)c([N+](=O)[O-])c(NC2CC2)n1 | 61 to 62 °C |
| O=[N+]([O-])c1ccc2c(c1)CCN(Cc1ccc3cc([N+](=O)[O-])ccc3n1)CC2 | 127 to 130 °C |
| Cc1cccc(-c2[nH]c(CC(C)C)nc2-c2cccc(-c3ccc(C(=O)NC4CCOCC4)cc3)c2)n1 | 126 to 129 °C |
| Cc1ccc(CCc2cc3c(s2)-n2c(C)nnc2CN=C3c2ccccc2Cl)cc1 | 160 to 162 °C |
| CC(C)=CCc1c(O)cc(O)cc1-c1cc2ccc(O)cc2o1 | 82 to 83 °C |

| Compound | melting point |
| --- | --- |
| O=C(Nc1n[nH]c2nc(Oc3ccc(F)cc3F)ncc12)OCc1ccccc1 | 270 to 272 °C |
| O=C(Nc1cccc(S(=O)(=O)NCCc2ccncc2)c1)c1cnn2c(C(F)(F)F)cc(-c3ccc(C(F)(F)F)cc3)nc12 | 236 °C |
| CC(C)(C)c1cc(CO)n(Cc2ccc(C(F)(F)F)cc2Cl)n1 | 115 to 117 °C |
| O=c1[nH]c(-c2ccccn2)nnc1-c1ccc(Cl)cc1 | 216 to 217 °C |
| CCC(=O)Nc1csc(Br)n1 | 122 to 125 °C |
| CC1(C)C2CCC1(CS(=O)(=O)N1CCC3(C=Cc4ccccc43)CC1)C(O)(CC(=O)O)C2 (configuration not stated) | 138 to 140 °C |
| CC(=O)c1ccc2c(c1)C1(c3ccccc3-c3ccccc31)c1ccccc1-2 | 225 °C |
| CCOC(=O)C(C#N)=Cc1c(Cl)n(Cc2cccc(Cl)c2)c2ccccc12 | 130 to 132 °C |
| CSCCNC(=O)c1cccc(-c2cccc(Oc3cc(Cl)cc(Cl)c3)n2)c1 | 123 to 124 °C |
| Cc1cc(Cl)nc(NC(=O)NS(=O)(=O)c2ccccc2OC(F)F)n1 | 190 to 191 °C |
| Cc1nc(N2CCN(Cc3ccccc3)CC2)ncc1C(=O)O | 192 °C |
| COC(=O)C1=C(C)NC(C)=C(C(=O)OC)C1c1cccc(NC(=S)NNC(=O)CN2CCC(c3cccc(OC)c3)CC2)c1 | 113 to 116 °C |
| CCOc1cc2ncc(C#N)c(Nc3ccc(F)cc3C)c2cc1OCC | 105 to 108 °C |
| Cc1ccccc1-c1cc(N2CCOCC2)ncc1N(C)C(=O)C(C)(C)c1cc(C(F)(F)F)cc(C(F)(F)F)c1 | 129 to 130 °C |
| Cc1c(C)c2c(c(C)c1N)C(c1ccc(Br)cc1)C(C)(C)O2 (single isomer, unassigned; (+)) | 143 to 144 °C |
| COC(=O)c1ccc(Oc2nn(Cc3ccccc3)c3ccccc23)o1 | 89 to 91 °C |
| CCC(=O)[C@@H](NC(=O)OCc1ccccc1)[C@@H](C)CC | 57 to 58 °C |
| Cn1c(=O)c2c(ncn2CC(O)CN2CCN(CCCS(=O)(=O)c3ccccc3)CC2)n(C)c1=O (configuration not stated) | 168 °C |
| CC(=NO)C(=O)C(C)(C)C | 107 to 110 °C |
| COC(=O)C1CCC2C3CC(O)C4(O)CC(O)CCC4(C)C3CCC12C (configuration not stated) | 266 to 268 °C |
| Cc1cc(C)nc(OC(C(=O)O)C(C)(C)C)n1 (configuration not stated) | 167 to 169 °C |

| Compound | melting point |
| --- | --- |
| O=[N+]([O-])c1ccc(Cl)c(CN2CCCCC2)c1Cl | 67 to 68 °C |
| CCOC(=O)c1cnn(-c2c(Cl)cc(C(F)(F)F)cc2Cl)c1 | 57 to 59 °C |
| C=C(Cn1ccnc1)c1ccccc1O | 139 to 141 °C |
| COC(=O)Cc1c(C)nc(SC)nc1O | 200 °C |
| O=C(O)CCCCNC(=O)C(CS)Cc1ccccc1 (configuration not stated) | 78 to 79 °C |
| O=C(O)c1ccc(-c2csc(-c3ccncc3)n2)cc1 | > 300 °C |
| O=[N+]([O-])c1cc2nc(O)c(O)nc2c2ncccc12 | > 300 °C |
| CC1(C)CC(=C2CC(C)(C)NC(C)(C)C2)CC(C)(C)N1 | 144 to 145 °C |
| Cc1nc2ccc3c(c2o1)OC(CN1C2CCC1CC(O)(c1ccc4ccccc4c1)C2)CO3 (configuration not stated) | 192 to 195 °C |
| CCCOc1ccccc1Nc1ncc(C(=O)O)c(=O)[nH]1 | 202 to 204 °C |
| CCOC(=O)C(Cl)=Cc1cccc([N+](=O)[O-])c1 | 75 °C |
| O=[N+]([O-])c1ccc(F)c(-c2ccc3ncccc3c2)c1F | 152 to 153 °C |
| CC1CC(O)CC2=CCC3C4CCC(=O)C4(C)CCC3C21C (configuration not stated) | 167 to 169 °C |
| O=C(CC1(O)CCC1)N[C@H]1CC[C@H](CCN2CCN(c3nccc4c3OCC4)CC2)CC1 | 155 °C |
| Cc1ccc(NC(=O)c2cccc([N+](=O)[O-])c2)cc1 | 160 to 162 °C |
| O=C(O)CC1CSc2sccc2C1=O (configuration not stated) | 124 to 127 °C |
| CCc1nn(C2CCCC2)c(NC(=O)c2ccnc3ccccc23)c1C#N | 156 to 161 °C |
| COc1cccc2c(O)c(C(=O)NCCCCN3CCN(C(c4ccccc4)c4ccccc4)CC3)cnc12 | 209 to 212 °C |
| O=S(=O)(c1c(Br)c(Br)n(CCl)c1-c1ccc(Cl)cc1)C(F)(F)F | 153 to 156 °C |
| Cc1nc(N)c2nc(C)n(CC3(O)CCC3)c2c1C | > 250 °C |
| CC(=O)Nc1ncc2ncn([C@@H]3C[C@H](OC(C)=O)[C@@H](O)[C@H]3O)c2n1 (racemic) | 222 to 223 °C |

Results, then the molecule that gave them:

| melting point | Compound |
| --- | --- |
| 204 to 205 °C | COc1ccc(-c2cc(=O)c3c(O)cc(OCC4=COC(C)(C)O4)cc3o2)cc1OC(=O)C(C)(C)C |
| 79 to 81 °C | COC(=O)C(=O)c1ccc(OCCOc2ccccc2)cc1 |
| 152 to 154 °C | CC(=O)Nc1ccc(I)cc1F |
| 268 to 270 °C | CCOC(=O)COc1ccc([N+](=O)[O-])c(C=C2NC(=O)NC2=O)c1 |
| 87 to 88 °C | CC1(C)COS(=O)Oc2ccc(C#N)cc21 (configuration not stated) |
| 63 to 64 °C | CC(=O)c1ccc(-c2ccc(F)cc2F)c(Cl)c1 |
| 80 to 81 °C | COc1cnc(C#N)c(C)c1 |
| 133 to 135 °C | CC(=O)NCc1ccc(CO)cc1[N+](=O)[O-] |
| 221 to 222 °C | CCn1c(=O)c2[nH]c(C(C)C)nc2n(Cc2ccc(Cl)cc2)c1=O |
| 115 to 117 °C | CSc1cc(C)cc(C)c1C=NO |
| 290 to 294 °C | COc1ccccc1C1=Nc2ccc(C(=O)O)cc2C(=O)C1 |
| 150 to 152 °C | CN(CCOc1ccc(NS(C)(=O)=O)cc1)CCc1ccc(NS(C)(=O)=O)cc1 |
| 70 to 71.5 °C | CC(C)(SCC(N)=O)c1ccc2c(c1)OCO2 |
| 81 to 83 °C | CCOC(=O)C1=Cc2cc(-c3ccc(CC)cc3)ccc2OCC1 |
| 43 to 43.7 °C | FCCOc1ccc(COCc2ccc(Cl)cc2)cc1 |
| 165 to 168 °C | N#Cc1ccc(C2NC(=O)Cc3ccccc32)cc1 (configuration not stated) |
| 63 to 64 °C | COc1cc2c(cc1OCc1ccccc1)CCN(C(=O)c1cc(OC)c(OC)c(OC)c1)C2 |
| 144 to 146 °C | COc1cc2c(cc1OC)CC(=O)N(Cc1cccnc1)C=C2 |
| 136 to 157 °C | CNC(=O)c1cccc(Cl)c1Nc1nc(Nc2ccc3c(c2)CCCC(=O)N3CCOC)ncc1Cl |
| 230 to 233 °C | COc1cccc2c1C(c1ccccc1Cl)NC(=O)C2 (configuration not stated) |

| melting point | Compound |
| --- | --- |
| 125 to 127 °C | CN1CC[C@@H](c2c(O)cc(O)c3c(=O)cc(-c4cccnc4Cl)oc23)[C@@H]1CO |
| 167 to 168 °C | COC(=O)c1[nH]c2c(C)ccc(Cl)c2c1C(C)=O |
| 202 to 204 °C | COc1ccc(-c2coc3cc(OC)cc(OC)c3c2=O)c(OC)c1 |
| 182 to 185 °C | COc1ccc(CCN(C)C)c2[nH]c(C(F)(F)F)nc12 |
| 95 to 97 °C | COc1cscc1NC=O |
| 142 to 143 °C | Cc1ccc(C)c(S(=O)(=O)c2ccc(F)c3ccccc23)c1 |
| 79 to 80 °C | CC1CCc2cc3c(cc21)OCC(=O)CO3 (configuration not stated) |
| 144 to 145 °C | CCC#CCOc1cc2c(cc1/C=C/c1ccc(C(=O)O)cc1)C(C)(C)CCC2(C)C |
| 174 to 176 °C | CN1CCN(C(=NNS(=O)(=O)c2ccccc2)c2ccc(Cl)cc2Cl)CC1 |
| 103 to 106 °C | COc1ccc2[nH]cc(C3CCC(=O)CC3)c2c1 |
| 93 to 94 °C | COc1ccc2c(c1)CC(=O)N2C |
| 165 to 166 °C | CCOC(=O)c1sc2ccc3c(c2c1Cl)O[C@@H](CO)CO3 |
| 105 to 107 °C | CCCCNc1cc(CNC(=O)OCC)cc(S(N)(=O)=O)c1Oc1ccccc1 |
| 150 to 152 °C | CC[C@H](COC)n1cc(Br)nc(N2CCc3cc(Cl)cc(Cl)c32)c1=O |
| 198 to 199 °C | CC(C)(C)c1ccc(/C=C/C(=O)Nc2ccc3c(c2)CCCC3)cc1 |
| 115 to 120 °C | CCOc1c(C)c(C)c(OC)c(CN(C)CCOc2cc(C)ccc2C(C)C)c1C |
| 159 to 160 °C | COc1nc(Cl)cnc1NS(=O)(=O)c1cccc(F)c1Cl |
| 235 to 237 °C | COc1cc(F)ccc1C(O)C1CCCCn2c1nc(-c1ccncn1)cc2=O (racemic) |
| 49 to 51 °C | Cc1ccc(-c2cccs2)cc1C |
